Values after ≈ are worked out from the molar mass of the structure shown.
What was measured:
[1] = tested on: S. pneumoniae (ATCC 6301); experiment: S. pneumoniae lung infection in vivo efficacy model (mice); design: species or system Streptococcus pneumoniae; conditions: 25 mg kg^−1 SC qd, 10 days
MRSA = MRSA in 50% human serum / 50% MHB
Procedure: The compounds, along with standard antibiotics were serially diluted twofold across the wells of 96-well non-binding surface (NBS) polystyrene plates (Corning 3641). […] Standards ranged from 64 to 0.03 µg mL^−1 and compounds from 8 to 0.003 µg mL^−1 with final assay volumes of 100 µL per well. Gram-positive bacteria were cultured in Mueller Hinton broth (MHB) (Bactolaboratories, Cat. no. 211443) at 37 °C overnight. A sample of each culture was then diluted 40-fold in fresh MHB and incubated at 37 °C for 2–3 h. […] All the plates were covered and incubated at 37 °C for 24 h. MICs were the lowest concentration showing no visible growth.
The compounds, along with standard antibiotics, tested in BMD-MIC assay as above, in the presence of a mixture of 50% human serum (Sigma-Aldrich) and 50% MHB.

HEK293 cells = experiment: Cytotoxicity MTT assay; type: cell-based, human
Procedure, shortened: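 HepG2 and HEK293 cells, 1.5 × 10^4 per well in DMEM with 1% FBS, were allowed to attach for 24 h, then exposed 24 h at 37 °C to compounds at 100 µM to 0.046 µM in threefold steps. MTT (0.4 mg mL^−1) was added for 2 h, and formazan in DMSO was read at 570 nm. Viability is given as percent of control, corrected for a positive control.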

[2] = tested on: cell-free particulate fraction of Bacillus megaterium KM (ATCC 13632); experiment: Cell-free peptidoglycan inhibition assay; type: biochemical; conditions: cell free radiolabelled synthesis assay
Procedure: The cell-free particulate fraction of Bacillus megaterium KM (ATCC®13632™) was used to catalyse the polymerisation of peptidoglycan from UPD-linked precursors in vitro following literature procedures. B. megaterium was grown in the medium containing 1% (w/v) tryptone (Difco-Bacto), 0.5% (w/v) yeast extract (Difco-Bacto), 0.25% (w/v) K2HPO4 and 0.5% (w/v) glucose with pH 7.2. Bacteria were harvested when the density had reached to 0.4 mg dry weight mL^−1 and washed in the buffer 0.05 M Tris-HCl (pH 7.8) containing 10 mM MgCl2 by centrifugation at 6000 × g for 10 min at 4 °C. All subsequent manipulations were carried out on ice. The bacteria were resuspended in the same buffer at a density of 50 mg dry weight mL^−1, and then subjected to three freeze/thaw cycles. Bacteria were then homogenised by using a glass homogeniser at 4 °C (2 × 10 min). The broken cell suspension was centrifuged at 6000 × g for 10 min at 4 °C. […] Integrated density value (IDV) of each band on silica gel was analysed using AlphaEase FC software (AlphaImager 2200). The change of peptidoglycan or Lipid II were calculated as percent from the IDV values of the control (without any antibiotic or compound).

MRSA (ATCC 43300) = conditions: 20 days, increasing sub-lethal concentrations
Procedure: A resistance induction assay was conducted for vancomycin, daptomycin, compound 17 and compound 24 [43].
S. aureus ATCC®43300™ was grown in Mueller Hinton broth supplemented with 50 µg mL^−1 of CaCl2. The bacterial culture was incubated at 37 °C in a shaker at 195 rpm.
The mid log S. aureus growth culture was serially diluted and plated on a solid LB agar plates in quadruplicates and incubated at 37 °C overnight to determine viable colony count.
The initial determination of the compound MICs were taken from the literature and empirically measured. […] The plate was then incubated at 37 °C overnight.
After overnight incubation, the growth of the S. aureus (MRSA) culture was determined by reading at OD600 on the Epoch microplate spectrophotometer and 0.1 OD600 was the chosen cut-off determining growth vs. no growth.

**Q.** CN[C@H](CC(C)C)C(=O)N[C@H]1C(=O)N[C@@H](CC(N)=O)C(=O)N[C@H]2C(=O)N[C@H]3C(=O)N[C@H](C(=O)N[C@H](C(=O)O)c4cc(O)cc(O)c4-c4cc3ccc4O)[C@H](O)c3ccc(c(Cl)c3)Oc3cc2cc(c3O[C@@H]2O[C@H](CO)[C@@H](O)[C@H](O)[C@H]2O[C@H]2C[C@](C)(N)[C@H](O)[C@H](C)O2)Oc2ccc(cc2Cl)[C@H]1O [Compound 1, Vancomycin] was tested. Which “survival rate relative to the vehicle control” value [1] did it give?
**A.** The value was no less than 50%.

**Q.** CN[C@H]1C(=O)N[C@@H]2Cc3ccc(cc3)Oc3cc4cc(c3O[C@@H]3O[C@H](C(=O)O)[C@@H](O)[C@H](O)[C@H]3NC(=O)CCCCCCCCC(C)C)Oc3ccc(cc3Cl)[C@@H](O)[C@@H]3NC(=O)[C@H](NC(=O)[C@@H]4NC(=O)[C@@H](NC2=O)c2cc(cc(O)c2Cl)Oc2cc1ccc2O)c1ccc(O)c(c1)-c1c(O[C@H]2O[C@H](CO)[C@@H](O)[C@H](O)[C@@H]2O)cc(O)cc1[C@@H](C(=O)NCCCN(C)C)NC3=O [Compound 3, Dalbavancin] was tested. Which “MIC +50% HS” value (MRSA) did it give?
**A.** The value was 8 µg/mL (≈ 4.4 µM).

**Q.** What about the CC50 (HEK293 cells) of the same molecule?
**A.** The CC50 was 73 µM.

**Q.** For CCCCCCCCCCCCCC(=O)N[C@@H](CCCCN)C(=O)N[C@@H](CCCCN)C(=O)N[C@@H](CCCCN)C(=O)N[C@@H](CCCCNC(=O)[C@H]1NC(=O)[C@H]2NC(=O)[C@H](NC(=O)[C@@H]3NC(=O)[C@H](CC(N)=O)NC(=O)[C@H](NC(=O)[C@@H](CC(C)C)NC)[C@H](O)c4ccc(c(Cl)c4)Oc4cc3cc(c4O[C@@H]3O[C@H](CO)[C@@H](O)[C@H](O)[C@H]3O[C@H]3C[C@](C)(N)[C@H](O)[C@H](C)O3)Oc3ccc(cc3Cl)[C@H]2O)c2ccc(O)c(c2)-c2c(O)cc(O)cc21)C(=O)O [Compound 17, nC13CO-KKK-K(Vancomycin)-OH], which “Peptidoglycan formation, 14C-GlcNAc incorporation” value [2] is on record?
**A.** The value was “inhibited peptidoglycan formation”.

**Q.** And the “Induced resistance on serial culture” value (MRSA (ATCC 43300))?
**A.** The value was “low levels of resistance compared to daptomycin”.

Source: publication PMC5750218, “Protein-inspired antibiotics active against vancomycin- and daptomycin-resistant bacteria” (Nature Communications, 2018)
